In ChEMBL document CHEMBL1135027, “Tyrosylprotein sulfotransferase inhibitors generated by combinatorial target-guided ligand assembly” (Bioorg Med Chem Lett, 2002):

How the values were obtained:
[1] = target: T1, Protein-tyrosine sulfotransferase 2 (Homo sapiens, UniProt O60704); test: Inhibitory activity of compound was determined against human tyrosylprotein sulfotransferase-2 (hTPST-2) using [35S]PAPS radioligand
T1 sequence (O60704 whole entry): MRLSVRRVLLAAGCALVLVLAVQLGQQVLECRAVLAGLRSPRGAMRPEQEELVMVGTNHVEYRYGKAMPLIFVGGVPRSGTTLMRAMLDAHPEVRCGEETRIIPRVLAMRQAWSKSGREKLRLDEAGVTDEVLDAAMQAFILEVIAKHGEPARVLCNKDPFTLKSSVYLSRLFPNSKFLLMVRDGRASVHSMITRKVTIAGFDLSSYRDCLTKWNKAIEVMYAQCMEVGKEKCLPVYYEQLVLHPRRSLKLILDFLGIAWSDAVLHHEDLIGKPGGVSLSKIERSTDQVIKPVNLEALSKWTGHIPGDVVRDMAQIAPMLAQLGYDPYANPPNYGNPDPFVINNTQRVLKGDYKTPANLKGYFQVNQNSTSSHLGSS

[2] = target: T1, Protein-tyrosine sulfotransferase 2; test: Inhibitory activity of compound was determined against human tyrosylprotein sulfotransferase-2 (hTPST-2) using [35S]PAPS radioligand at 800 uM
[3] = target: T1, Protein-tyrosine sulfotransferase 2; test: Displacement of [35S]PAPS from human tyrosylprotein sulfotransferase-2 (hTPST-2); parameters: concentration or dose not given beside the values
Sulfotransferase 1E1 [4] = target: T2, Sulfotransferase 1E1 (Homo sapiens, UniProt P49888); test: Compound was tested for inhibition against estrogen sulfotransferase (EST), a human cytosolic sulfotransferase
T2 sequence (P49888 whole entry): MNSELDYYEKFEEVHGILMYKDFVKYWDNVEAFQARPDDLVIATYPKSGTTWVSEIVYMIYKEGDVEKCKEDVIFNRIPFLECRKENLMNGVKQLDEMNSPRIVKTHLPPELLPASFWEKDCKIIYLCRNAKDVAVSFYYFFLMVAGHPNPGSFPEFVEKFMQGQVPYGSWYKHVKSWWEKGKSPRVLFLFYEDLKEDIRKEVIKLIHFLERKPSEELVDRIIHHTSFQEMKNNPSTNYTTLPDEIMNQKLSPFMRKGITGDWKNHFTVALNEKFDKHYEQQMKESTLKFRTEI

[5] = target: T3, Carbohydrate sulfotransferase 4 (Homo sapiens) (UniProt Q8NCG5); test: Inhibitory activity of compound was determined against human high endothelial cell (HEC) GlcNAc-6-ST sulfotransferase at 100 uM; format: cell-based
T3 sequence (whole entry): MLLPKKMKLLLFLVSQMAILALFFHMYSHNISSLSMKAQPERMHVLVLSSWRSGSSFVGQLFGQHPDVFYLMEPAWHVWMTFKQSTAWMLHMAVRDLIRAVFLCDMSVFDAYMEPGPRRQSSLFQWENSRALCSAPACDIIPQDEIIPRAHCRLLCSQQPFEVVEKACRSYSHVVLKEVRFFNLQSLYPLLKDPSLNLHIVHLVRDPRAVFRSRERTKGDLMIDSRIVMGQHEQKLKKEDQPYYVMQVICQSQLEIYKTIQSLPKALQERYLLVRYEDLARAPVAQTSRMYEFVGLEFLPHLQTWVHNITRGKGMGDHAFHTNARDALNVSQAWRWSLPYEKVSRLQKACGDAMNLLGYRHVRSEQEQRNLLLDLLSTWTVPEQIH

[6] = target: T1, Protein-tyrosine sulfotransferase 2; test: Compound was tested for reversible inhibition of human tyrosylprotein sulfotransferase-2 (hTPST-2) at 40 uM for 5 hours and dialyzed; complete reversible inhibition observed.
[7] = target: T4, estrogen sulfotransferase (Sulfotransferase 1E1) (Homo sapiens, UniProt P49888); test: Inhibitory activity of compound was determined against estrogen sulfotransferase at 100 uM
T4 sequence (P49888 whole entry): T2 sequence (P49888 whole entry)

[8] = Inhibitory activity of compound was determined against bacterial GlcNAc-6-sulfotransferase (NodST) at 100 uM
Sulfotransferase 1E1 [9] = target: T2, Sulfotransferase 1E1; test: Compound was tested for inhibition against estrogen sulfotransferase (EST), a human cytosolic sulfotransferase.
[10] = target: T4, estrogen sulfotransferase (Sulfotransferase 1E1); test: Inhibitory activity of compound was determined against human estrogen sulfotransferase at 100 uM
[11] = target: T1, Protein-tyrosine sulfotransferase 2; test: Compound was tested for reversible inhibition of human tyrosylprotein sulfotransferase-2 (hTPST-2) at 40 uM for 5 hours and dialyzed

**Q.** Which IC50 [1] does the source give for `CO/N=C/c1coc2c(Cl)cc(Cl)cc2c1=O` here?
**A.** > 1000 µM

**Q.** And the inhibition at 800 µM [2]?
**A.** 40%

**Q.** Which Inhibition [3] does the source give for `CO/N=C/C=C/c1ccc([N+](=O)[O-])o1` here?
**A.** 47%

**Q.** With `CO/N=C/c1ccc([N+](=O)[O-])s1` as the compound, how does the Inhibition [3] read?
**A.** 65%

**Q.** With `CO/N=C/c1c(O)ccc2ccccc12` as the compound, how does the Inhibition [3] read?
**A.** 34%

**Q.** Which Inhibition [3] does the source give for `CO/N=C/c1cc(I)cc(I)c1O` here?
**A.** 48%

**Q.** For `CO/N=C/c1ccc(-c2ccc(Cl)cc2)o1`, which Inhibition [3] is on record?
**A.** 70%

**Q.** With `CO/N=C/c1cc(I)c(O)c(OC)c1` as the compound, how does the Inhibition [3] read?
**A.** 53%

**Q.** With `CO/N=C/c1c(N)oc2ccccc2c1=O` as the compound, how does the Inhibition [3] read?
**A.** 45%

**Q.** With `CO/N=C/c1coc2ccc(Br)cc2c1=O` as the compound, how does the Inhibition [3] read?
**A.** 85%

**Q.** Which IC50 (Sulfotransferase 1E1 [4]) does the source give for `O=c1c(/C=N/OCCCCCO/N=C/c2cc(Br)c(O)c(Br)c2)coc2c(Cl)cc(Cl)cc12` here?
**A.** 0.25 µM

**Q.** And the inhibition [5]?
**A.** 30%

**Q.** What about the IC50 [1] of the same compound?
**A.** 30 µM

**Q.** What about the Inhibition [6] of the same compound?
**A.** complete reversible inhibition observed

**Q.** What about the inhibition at 100 µM [7] of the same compound?
**A.** 100%

**Q.** And the inhibition [8]?
**A.** 66%

**Q.** With `CO/N=C/C(C)=C/c1ccco1` as the compound, how does the Inhibition [3] read?
**A.** 59%

**Q.** With `O=c1c(/C=N/OCCCCCO/N=C/c2cc(Br)cc([N+](=O)[O-])c2O)coc2c(Cl)cc(Cl)cc12` as the compound, how does the IC50 (Sulfotransferase 1E1 [9]) read?
**A.** 3 µM

**Q.** And the inhibition [5]?
**A.** 7%

**Q.** And the inhibition at 100 µM [10]?
**A.** 100%

**Q.** What about the IC50 [1] of the same compound?
**A.** 40 µM

**Q.** What about the inhibition at 40 µM [11] of the same compound?
**A.** 50%

**Q.** And the inhibition [8]?
**A.** 19%

**Q.** Which IC50 [1] does the source give for `CO/N=C/c1cc(Br)c(O)c(Br)c1` here?
**A.** 425 µM

**Q.** Which Inhibition [3] does the source give for `CO/N=C/c1ccc(-c2cccc(Cl)c2)o1` here?
**A.** 50%

**Q.** For `CO/N=C/C(=C/c1ccco1)c1ccccc1`, which Inhibition [3] is on record?
**A.** 55%

**Q.** For `CO/N=C/c1coc2cc(C)c(C)cc2c1=O`, which Inhibition [3] is on record?
**A.** 35%

**Q.** Which Inhibition [3] does the source give for `CO/N=C/c1cc(OC)c(O)c(OC)c1` here?
**A.** 37%

**Q.** Which Inhibition [3] does the source give for `CO/N=C/c1cccc(F)c1O` here?
**A.** 25%

**Q.** For `CO/N=C/c1cc(C)cc(Br)c1O`, which Inhibition [3] is on record?
**A.** 31%

**Q.** Which IC50 [1] does the source give for `CO/N=C/c1cc(Br)cc([N+](=O)[O-])c1O` here?
**A.** > 1000 µM
